From paper PMC8392382, “Flavonoids as Human Intestinal α-Glucosidase Inhibitors” (Foods, 2021)
Marks after values point to notes of the source that are not given here.

Assays:
human sucrase = biological target: T1, human sucrase (Homo sapiens, UniProt P14410); assay: Sucrase inhibition in Caco-2/TC7 cell-free extract, sucrose as substrate, HPAE-PAD; type: biochemical; conditions: for 15% inhibitory concentration (IC15) Sucrase / 25% inhibitory concentration (IC25) Sucrase / IC50: Caco-2/TC7 CFE, mean ± SEM, n = 3; for 15% inhibitory concentration (IC15) Sucrase / 25% inhibitory concentration (IC25) Sucrase: sucrose; for IC50: 20 mM sucrose, 10 min 37 °C, read-out: 50% inhibitory concentration (IC50) Sucrase; for percent inhibition of sucrase at maximum concentration tested: maximum concentration: acarbose 200, EGCG 1500, quercetin 200, quercetagetin 50, kaempferol 40, galangin 25 µM
T1 construct: an in vitro assay using Caco-2/TC7 cell extracts containing sucrase, maltase and isomaltase was conducted; endogenous in cells; host or cells: Caco-2/TC7 (human colon adenocarcinoma), 21 days post-confluence, crude cell-free extract
Procedure: (§1) Disaccharides and monosaccharides were analyzed by HPAE-PAD on the Dionex™ Integrion™ HPIC™ system (Thermo Fisher Scientific). Separation of the carbohydrates was achieved on a CarboPac PA210 column (2 × 150 mm), preceded by a CarboPac PA210 Guard column (2 × 30 mm), with the column and compartment temperatures maintained at 30 °C and 20 °C, respectively. […] Detection was performed using a gold working electrode and AgCl reference electrode at pH ~ 12.0, with a collection rate of 2.00 Hz using the “Gold, Carbo, Quad” waveform. […] A wash injection of only H2O while following the same multistep eluent gradient was performed at the end of every batch (12–14 samples). All injections were performed in duplicate and peak identification was achieved by comparing retention times to the standards. Dionex™ Chromeleon™ 7 Chromatography Data System, version 7.2.9 (Thermo Fisher Scientific, Waltham, MA, USA), was used to process the chromatograms, ensuring peaks were suitably integrated before recording peak area. Sugars were quantified from peak areas using standard curves, with the standards prepared in the same buffer as the samples.
(§2) To mimic intestinal digestion, an in vitro assay using Caco-2/TC7 cell extracts containing sucrase, maltase and isomaltase was conducted. Frozen cells were thawed, 1 mL ice-cold SPB added and then passed through a 21-G needle 15–20 times. The lysate was centrifuged at 14,000× g, 10 min at 4 °C and the supernatant containing cell-free extract (CFE) collected. Total protein concentration in the CFEs was determined by Bradford assay, using the Pierce Coomassie Bradford reagent and BSA standards (Thermo Fisher Scientific, Waltham, MA, USA).
(§3) Assay mixtures, total volume 250 µL, containing CFE (final protein concentration at 0.1–0.35 mg/mL), with or without various concentrations of inhibitors/flavonoids, were prepared and kept on ice. The enzyme reaction was initiated by the addition of ≥20 mM sucrose, maltose or isomaltose and immediately incubating in a 37 °C water bath for 10 min (or various time points during method setup and validation). Following incubation, the enzyme activity was terminated by incubating in a 96 °C water bath for a further 10 min. A positive control without any added inhibitor/flavonoid was simultaneously tested in each batch, and negative controls without enzymes or substrates were also assayed to evaluate the stability of the inhibitors/compounds. Samples were prepared for HPAE-PAD analysis as described in Section 2.3. Specific enzyme activities were determined (U/mg CFE protein) and expressed as a percentage of control enzyme activities accordingly.
(§4) Controls (CFE and substrate only) were prepared by replacing the volume of inhibitor with SPB. […] Estimation of inhibition values were determined in GraphPad Prism and the percentage of inhibition of the sample was calculated following Equation (7) below, where SA = specific activity:(7) Inhibition %=SAcontrol − SAsample/SAcontrol×100
(§5) Enzyme assays were performed at least once for CFEs from biological triplicates, with duplicate injections of each analyzed by HPAE-PAD. MS Excel (Microsoft, Redmond, WA, USA) was used for data processing and analysis. Final inhibition values were expressed as the percentage of control activity (%). The IC15, IC25 and IC50 values were calculated based on the plots created using GraphPad, using the dose-response inhibition (log (inhibitor) vs. normalized response—variable slope) model. The same software was used to determine the apparent Km and Vmax values under the enzyme–kinetic inhibition model, and for statistical analyses using non-parametric multiple comparisons tests. A difference was considered significant at p < 0.05 for all comparisons. All data are expressed as the mean ± SD or SEM, specified accordingly.

human maltase = assay: Maltase inhibition in Caco-2/TC7 cell-free extract, maltose as substrate, HPAE-PAD; type: biochemical; conditions: for IC50 / 15% inhibitory concentration (IC15) Maltase / 25% inhibitory concentration (IC25) Maltase: Caco-2/TC7 CFE, mean ± SEM, n = 3; for IC50: 20 mM maltose, 10 min 37 °C, read-out: 50% inhibitory concentration (IC50) Maltase; for 15% inhibitory concentration (IC15) Maltase / 25% inhibitory concentration (IC25) Maltase: maltose; for percent inhibition of maltase at maximum concentration tested: maximum concentration: acarbose 200, EGCG 1500, quercetin 200, quercetagetin 50, kaempferol 40, galangin 25 µM
Procedure: Disaccharides and monosaccharides were analyzed by HPAE-PAD on the Dionex™ Integrion™ HPIC™ system (Thermo Fisher Scientific). Separation of the carbohydrates was achieved on a CarboPac PA210 column (2 × 150 mm), preceded by a CarboPac PA210 Guard column (2 × 30 mm), with the column and compartment temperatures maintained at 30 °C and 20 °C, respectively. Eluent was generated using a Dionex™ EGC 500 KOH eluent generator cartridge with Dionex™ continuously regenerated-anion trap column 600, with eluent concentration following a multistep gradient: 12 mM for 12 min, 100 mM for 8 min and 12 mM for 12 min, at a flow rate of 0.2 mL/min and with a sample injection volume of 2.5 μL. Detection was performed using a gold working electrode and AgCl reference electrode at pH ~ 12.0, with a collection rate of 2.00 Hz using the “Gold, Carbo, Quad” waveform. The total run time per sample was 32 min, with 3 min allowed between analyses for sample injection by autosampler. A wash injection of only H2O while following the same multistep eluent gradient was performed at the end of every batch (12–14 samples). All injections were performed in duplicate and peak identification was achieved by comparing retention times to the standards. Dionex™ Chromeleon™ 7 Chromatography Data System, version 7.2.9 (Thermo Fisher Scientific, Waltham, MA, USA), was used to process the chromatograms, ensuring peaks were suitably integrated before recording peak area. Sugars were quantified from peak areas using standard curves, with the standards prepared in the same buffer as the samples.
as §2, §3
as §4, with “SPB. Activities of sucrase, maltase and isomaltase were considered as 100% (or 0% inhibition) in the absence of an inhibitor.” for “SPB.”
Enzyme assays were performed at least once for CFEs from biological triplicates, with duplicate injections of each analyzed by HPAE-PAD. MS Excel (Microsoft, Redmond, WA, USA) was used for data processing and analysis. Final inhibition values were expressed as the percentage of control activity (%). […]

human isomaltase = biological target: T2, human isomaltase (Homo sapiens, UniProt P14410); assay: Isomaltase inhibition in Caco-2/TC7 cell-free extract, isomaltose as substrate, HPAE-PAD; type: biochemical; conditions: for 15% inhibitory concentration (IC15) Isomaltase / 25% inhibitory concentration (IC25) Isomaltase: isomaltose; for percent inhibition of isomaltase at maximum concentration tested: maximum concentration: acarbose 200, EGCG 1500, quercetin 200, quercetagetin 50, kaempferol 40, galangin 25 µM
T2 construct: an in vitro assay using Caco-2/TC7 cell extracts containing sucrase, maltase and isomaltase was conducted; endogenous in cells; host or cells: Caco-2/TC7 (human colon adenocarcinoma), 21 days post-confluence, crude cell-free extract
Procedure: as §1, §2, §3, §4, §5

[1] = tested on: human maltase expressed in yeast; assay: Inhibition of human maltase expressed in yeast (literature); type: biochemical; conditions: compared with this paper and ref 30
[2] = biological target: human maltase expressed in yeast; design: method as in PMID 32218677; conditions: cited from earlier work
yeast α-glucosidase = tested on: yeast α-glucosidase; design: method as in PMID 26212963, PMID 30245236, PMID 31007116, PMID 23137344; conditions: cited from earlier work
rat maltase = conditions: cited from earlier work
rat sucrase = conditions: cited from earlier work
[3] = design: method as in PMID 9414116; conditions: cited from earlier work
[4] = Caco-2/TC7 CFE, mean ± SEM, n = 3

T2 sequence (P14410 whole entry): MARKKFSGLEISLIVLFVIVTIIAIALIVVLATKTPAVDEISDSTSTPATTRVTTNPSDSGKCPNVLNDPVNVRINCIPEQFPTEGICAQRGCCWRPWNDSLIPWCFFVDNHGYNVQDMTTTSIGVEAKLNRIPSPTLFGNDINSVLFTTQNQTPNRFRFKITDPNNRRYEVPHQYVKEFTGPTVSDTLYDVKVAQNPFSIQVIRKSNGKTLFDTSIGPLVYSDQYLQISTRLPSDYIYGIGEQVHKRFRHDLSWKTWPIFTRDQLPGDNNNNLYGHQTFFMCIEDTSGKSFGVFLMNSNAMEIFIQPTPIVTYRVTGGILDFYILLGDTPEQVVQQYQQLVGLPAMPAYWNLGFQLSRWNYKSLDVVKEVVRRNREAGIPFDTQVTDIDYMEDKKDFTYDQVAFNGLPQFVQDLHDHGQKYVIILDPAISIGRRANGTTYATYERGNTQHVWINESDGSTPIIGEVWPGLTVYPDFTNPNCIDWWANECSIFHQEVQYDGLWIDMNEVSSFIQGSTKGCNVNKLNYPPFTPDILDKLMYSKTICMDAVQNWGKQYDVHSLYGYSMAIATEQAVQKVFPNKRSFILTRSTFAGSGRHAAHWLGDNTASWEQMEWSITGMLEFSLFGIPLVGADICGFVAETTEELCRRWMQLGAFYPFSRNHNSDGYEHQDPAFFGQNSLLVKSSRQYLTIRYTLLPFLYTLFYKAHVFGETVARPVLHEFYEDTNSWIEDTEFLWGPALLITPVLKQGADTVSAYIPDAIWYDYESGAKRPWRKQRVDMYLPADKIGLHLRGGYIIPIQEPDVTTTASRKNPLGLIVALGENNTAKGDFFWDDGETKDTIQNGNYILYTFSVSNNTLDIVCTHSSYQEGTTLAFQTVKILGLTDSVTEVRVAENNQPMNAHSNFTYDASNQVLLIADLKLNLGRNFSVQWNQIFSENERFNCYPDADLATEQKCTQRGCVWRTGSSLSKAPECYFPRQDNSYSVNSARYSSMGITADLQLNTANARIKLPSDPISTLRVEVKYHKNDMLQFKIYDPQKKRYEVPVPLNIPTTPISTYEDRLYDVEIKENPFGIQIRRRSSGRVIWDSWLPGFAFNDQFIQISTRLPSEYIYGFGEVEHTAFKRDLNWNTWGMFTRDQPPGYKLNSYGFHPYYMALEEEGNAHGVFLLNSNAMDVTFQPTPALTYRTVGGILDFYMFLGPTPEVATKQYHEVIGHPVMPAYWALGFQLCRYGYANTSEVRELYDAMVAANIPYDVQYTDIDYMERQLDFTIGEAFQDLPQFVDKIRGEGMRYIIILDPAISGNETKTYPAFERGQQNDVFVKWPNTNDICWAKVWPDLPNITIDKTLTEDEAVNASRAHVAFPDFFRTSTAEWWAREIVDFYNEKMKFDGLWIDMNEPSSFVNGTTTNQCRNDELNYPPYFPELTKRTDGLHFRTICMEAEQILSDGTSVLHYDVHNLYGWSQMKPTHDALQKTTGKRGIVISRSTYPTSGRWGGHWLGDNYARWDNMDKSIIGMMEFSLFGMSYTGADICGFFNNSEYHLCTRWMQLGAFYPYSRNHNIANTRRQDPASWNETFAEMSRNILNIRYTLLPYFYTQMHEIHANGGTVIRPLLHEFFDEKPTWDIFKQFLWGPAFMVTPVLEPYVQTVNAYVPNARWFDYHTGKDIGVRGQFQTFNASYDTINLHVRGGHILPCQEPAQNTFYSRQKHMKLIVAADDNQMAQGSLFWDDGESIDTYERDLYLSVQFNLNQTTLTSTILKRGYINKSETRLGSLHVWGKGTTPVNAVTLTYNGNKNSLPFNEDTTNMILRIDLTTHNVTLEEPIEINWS
T1 sequence (P14410 whole entry): as above

| SMILES | 15% inhibitory concentration (IC15) Sucrase (human sucrase) | 25% inhibitory concentration (IC25) Sucrase (human sucrase) | IC50 (human maltase) [µM] | 15% inhibitory concentration (IC15) Isomaltase (human isomaltase; [4]) | 25% inhibitory concentration (IC25) Isomaltase (human isomaltase; [4]) | percent inhibition of isomaltase at maximum concentration tested (human isomaltase) | 15% inhibitory concentration (IC15) Maltase (human maltase) | 25% inhibitory concentration (IC25) Maltase (human maltase) | percent inhibition of maltase at maximum concentration tested (human maltase) | IC50 (human sucrase) [µM] | percent inhibition of sucrase at maximum concentration tested (human sucrase) | other results |
| --- | --- | --- | --- | --- | --- | --- | --- | --- | --- | --- | --- | --- |
| C[C@H]1O[C@H](O[C@H]2[C@H](O)[C@@H](O)[C@@H](O[C@H]3[C@H](O)[C@@H](O)C(O)O[C@@H]3CO)O[C@@H]2CO)[C@H](O)[C@@H](O)[C@@H]1N[C@H]1C=C(CO)[C@@H](O)[C@H](O)[C@H]1O (stereo partly drawn) [Acarbose, acarbose, reference compound] | 0.32 ± 0.05 ^a µM | 0.60 ± 0.09 ^a µM | 13.9 ± 2.3 | 7.8 ± 0.7 ^a µM | 14.4 ± 1.1 ^a µM | 96% | 2.4 ± 0.4 ^a µM | 4.6 ± 0.8 ^a µM | more than 50% | – | – | – |
| O=C(O[C@@H]1Cc2c(O)cc(O)cc2O[C@@H]1c1cc(O)c(O)c(O)c1)c1cc(O)c(O)c(O)c1 [EGCG, (−)-epigallocatechin-3-gallate, reference compound] | 41.2 ± 6.0 ^d µM | 72.9 ± 10.3 ^d µM | 186 ± 40.4 | 118.6 ± 18.0 ^b µM | 241.9 ± 40.4 ^b µM | 71% | 21.7 ± 4.5 ^c µM | 43.8 ± 9.2 ^b µM | – | 175 ± 60.1 | 100% | IC50 (human isomaltase; Caco-2/TC7 CFE, 20 mM isomaltose, 10 min 37 °C, mean ± SEM, n = 3, read-out: 50% inhibitory concentration (IC50) Isomaltase): 462 ± 60.3 µM; fold lower IC50 (human maltase expressed in yeast) than with Caco-2/TC7 as the enzyme origin [1]: 8–10 fold; IC50 [2]: 20 µM |
| O=c1c(O)c(-c2ccc(O)c(O)c2)oc2cc(O)c(O)c(O)c12 [Quercetagetin, quercetagetin] | 3.5 ± 1.1 ^b µM | 6.6 ± 1.8 ^b µM | – | 5.9 ± 1.9 ^a µM | 20.3 ± 7.3 ^a µM | ND (29%) | 3.4 ± 0.9 ^ab µM | 6.7 ± 1.5 ^a µM | ND (48%) | 21.7 ± 5.3 | > 50% | – |
| O=c1c(O)c(-c2ccc(O)c(O)c2)oc2cc(O)cc(O)c12 [Quercetin, quercetin] | 40.5 ± 5.1 ^d µM | 69.5 ± 8.2 ^d µM | – | 104.0 ± 18.8 ^b µM | – | ND (18%) | 43.0 ± 3.1 ^d µM | 82.0 ± 4.6 ^c µM | – | 162 ± 13.6 | > 50% | IC50 (rat maltase): 281 µM; IC50 (rat sucrase): > 400 µM; half-life [3]: ~ 24 h |

Now from value to compound, other results behind:

| 15% inhibitory concentration (IC15) Sucrase (human sucrase) | 25% inhibitory concentration (IC25) Sucrase (human sucrase) | IC50 (human maltase) [µM] | 15% inhibitory concentration (IC15) Isomaltase (human isomaltase; [4]) | 25% inhibitory concentration (IC25) Isomaltase (human isomaltase; [4]) | percent inhibition of isomaltase at maximum concentration tested (human isomaltase) | SMILES | 15% inhibitory concentration (IC15) Maltase (human maltase) | 25% inhibitory concentration (IC25) Maltase (human maltase) | percent inhibition of maltase at maximum concentration tested (human maltase) | IC50 (human sucrase) [µM] | percent inhibition of sucrase at maximum concentration tested (human sucrase) | other results |
| --- | --- | --- | --- | --- | --- | --- | --- | --- | --- | --- | --- | --- |
| 12.7 ± 2.1 ^c µM | 20.8 ± 5.5 ^c µM | – | 9.3 ± 1.2 ^a µM | – | – | O=c1c(O)c(-c2ccccc2)oc2cc(O)cc(O)c12 [Galangin, galangin] | 8.7 ± 1.1 ^abc µM | 17.6 ± 2.2 ^a µM | ND (22%) | – | – | inhibition at 25 µM (human sucrase; read-out: percent inhibition of sucrase at maximum concentration tested): 33%; inhibition at 25 µM (human isomaltase; read-out: percent inhibition of isomaltase at maximum concentration tested): 22% |
| 14.2 ± 3.7 ^c µM | 30.3 ± 8.2 ^c µM | – | 12.5 ± 3.7 ^a µM | 34.0 ± 8.4 ^a µM | ND (27%) | O=c1c(O)c(-c2ccc(O)cc2)oc2cc(O)cc(O)c12 [Kaempferol, kaempferol] | 19.0 ± 5.5 ^bc µM | – | ND (25%) | – | ND (31%) | percent inhibition of sucrase at maximum concentration tested (human sucrase; listed as kaempferol): < 32%; percent inhibition of maltase at maximum concentration tested (human maltase; listed as kaempferol): < 32%; percent inhibition of isomaltase at maximum concentration tested (human isomaltase; listed as kaempferol): < 32%; yeast α-glucosidase inhibition (yeast α-glucosidase): 95% |
